Experiments:
[1] = target: T1, Epidermal growth factor receptor (Homo sapiens, UniProt P00533); assay: Inhibition of autophosphorylation of epidermal growth factor receptor prepared from human A431 carcinoma cells.
[2] = target: T1, Epidermal growth factor receptor; assay: Inhibition of the phosphorylation of a random polyglutamic acid/tyrosine copolymer by human epidermal growth factor receptor(EGFR) prepared from human A431 carcinoma cells

T1 sequence (P00533 whole entry): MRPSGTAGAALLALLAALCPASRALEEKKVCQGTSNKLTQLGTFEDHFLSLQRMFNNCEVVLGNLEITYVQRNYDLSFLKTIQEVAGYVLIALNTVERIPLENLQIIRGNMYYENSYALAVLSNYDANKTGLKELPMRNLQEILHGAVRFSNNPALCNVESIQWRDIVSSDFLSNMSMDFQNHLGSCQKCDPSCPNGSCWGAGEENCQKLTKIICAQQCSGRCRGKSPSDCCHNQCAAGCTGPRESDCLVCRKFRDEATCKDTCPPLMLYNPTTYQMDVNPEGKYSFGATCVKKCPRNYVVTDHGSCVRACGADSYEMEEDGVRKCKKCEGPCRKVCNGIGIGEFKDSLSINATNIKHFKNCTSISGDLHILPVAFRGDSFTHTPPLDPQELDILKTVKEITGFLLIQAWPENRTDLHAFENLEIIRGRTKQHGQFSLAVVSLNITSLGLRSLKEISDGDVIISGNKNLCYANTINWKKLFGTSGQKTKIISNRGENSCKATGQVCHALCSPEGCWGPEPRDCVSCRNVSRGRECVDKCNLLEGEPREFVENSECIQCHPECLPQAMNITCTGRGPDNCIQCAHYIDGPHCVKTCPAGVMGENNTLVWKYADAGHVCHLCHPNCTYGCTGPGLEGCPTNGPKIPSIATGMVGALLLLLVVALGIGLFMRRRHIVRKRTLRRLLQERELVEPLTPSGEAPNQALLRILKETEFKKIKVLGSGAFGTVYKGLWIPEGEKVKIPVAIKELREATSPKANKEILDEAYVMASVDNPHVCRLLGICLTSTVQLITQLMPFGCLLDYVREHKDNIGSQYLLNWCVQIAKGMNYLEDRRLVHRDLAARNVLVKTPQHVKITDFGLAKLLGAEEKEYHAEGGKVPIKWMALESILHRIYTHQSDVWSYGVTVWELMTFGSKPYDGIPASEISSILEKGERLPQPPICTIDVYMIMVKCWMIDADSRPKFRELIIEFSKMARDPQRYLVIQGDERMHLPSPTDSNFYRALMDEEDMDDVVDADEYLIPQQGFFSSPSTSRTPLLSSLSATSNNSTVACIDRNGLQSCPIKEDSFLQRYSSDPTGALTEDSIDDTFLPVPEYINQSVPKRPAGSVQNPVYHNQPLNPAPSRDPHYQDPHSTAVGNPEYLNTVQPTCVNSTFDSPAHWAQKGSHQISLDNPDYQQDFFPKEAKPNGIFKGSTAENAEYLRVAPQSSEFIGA

Structure (SMILES)	IC50 [1] [nM]	IC50 [2] [nM]
CN(C)CCn1ncc2cc3c(Nc4cccc(Br)c4)ncnc3cc21	262	40
Brc1cccc(Nc2ncnc3cc4[nH]ccc4cc23)c1	22	
Brc1cccc(Nc2nccc3ccccc23)c1		> 100000
O=C(O)Cn1ccc2cc3c(Nc4cccc(Br)c4)ncnc3cc21	1780	5.1
OCC(O)Cn1ccc2cc3c(Nc4cccc(Br)c4)ncnc3cc21 (configuration not stated)	49	1.6
OCC(O)Cn1ncc2cc3c(Nc4cccc(Br)c4)ncnc3cc21 (configuration not stated)	318	12
Brc1cccc(Nc2ncnc3cc4[nH]ncc4cc23)c1	20	
Cc1nc(Nc2cccc(Br)c2)c2ccccc2n1		> 10000
CN(C)CCn1ccc2cc3c(Nc4cccc(Br)c4)ncnc3cc21	145	41
Brc1cccc(Nc2ncnc3cc4[nH]cc(CN5CCOCC5)c4cc23)c1	9.6	4.8
Cn1ccc2cc3c(Nc4cccc(Br)c4)ncnc3cc21	22	0.8
CN(C)CCCn1ccc2cc3c(Nc4cccc(Br)c4)ncnc3cc21	230	21
CN(CC(=O)O)Cc1c[nH]c2cc3ncnc(Nc4cccc(Br)c4)c3cc12	584	0.72
OCCN(CCO)Cc1c[nH]c2cc3ncnc(Nc4cccc(Br)c4)c3cc12	135	3.5
CN(C)CCN(C)Cc1c[nH]c2cc3ncnc(Nc4cccc(Br)c4)c3cc12	81	7.5
Brc1cccc(Nc2ncnc3cc4c(ccn4CCN4CCOCC4)cc23)c1	16	3.7
Cn1ncc2cc3c(Nc4cccc(Br)c4)ncnc3cc21	13	0.37
Brc1cccc(Nc2ncnc3cc4c(cnn4CCCN4CCOCC4)cc23)c1	77	8.8
COC(=O)CN(C)Cc1c[nH]c2cc3ncnc(Nc4cccc(Br)c4)c3cc12	9.6	3.4
COc1cccc2c(Nc3cccc(Br)c3)ncnc12		> 10000
CN(C)Cc1c[nH]c2cc3ncnc(Nc4cccc(Br)c4)c3cc12	9.7	2.6

— ChEMBL document CHEMBL1130030, “Tyrosine kinase inhibitors. 11. Soluble analogues of pyrrolo- and pyrazoloquinazolines as epidermal growth factor receptor inhibitors: synthesis, biological evaluation, and modeling of the mode of binding” (J Med Chem, 1997)
